Test results published in ChEMBL document CHEMBL5360622, “Leucettinibs, a Class of DYRK/CLK Kinase Inhibitors Inspired by the Marine Sponge Natural Product Leucettamine B” (J Med Chem, 2023).

Assays:
[1] = target: T1, Mitogen-activated protein kinase 15 (Homo sapiens) (UniProt Q8TD08); conditions: dose 10.0 µM
T1 sequence (whole entry): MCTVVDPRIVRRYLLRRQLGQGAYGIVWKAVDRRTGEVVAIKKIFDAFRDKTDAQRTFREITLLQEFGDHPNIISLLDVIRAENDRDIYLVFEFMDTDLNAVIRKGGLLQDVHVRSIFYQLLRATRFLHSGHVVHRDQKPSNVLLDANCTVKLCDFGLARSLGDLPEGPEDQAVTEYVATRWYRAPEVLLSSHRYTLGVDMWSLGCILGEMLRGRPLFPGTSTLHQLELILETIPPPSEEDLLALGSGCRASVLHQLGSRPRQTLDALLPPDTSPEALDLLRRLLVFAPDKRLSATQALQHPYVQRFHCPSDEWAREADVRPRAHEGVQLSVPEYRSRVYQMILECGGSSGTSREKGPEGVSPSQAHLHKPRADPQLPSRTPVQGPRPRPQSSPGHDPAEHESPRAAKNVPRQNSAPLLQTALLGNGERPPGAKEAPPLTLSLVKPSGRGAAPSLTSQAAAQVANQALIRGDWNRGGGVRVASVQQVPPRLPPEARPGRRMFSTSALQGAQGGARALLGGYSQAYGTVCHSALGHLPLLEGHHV

[2] = target: T2, Dual specificity protein kinase CLK1 (Homo sapiens, UniProt P49759); conditions: dose 10.0 µM
Target sequence in this assay (P49759 whole entry, looked up): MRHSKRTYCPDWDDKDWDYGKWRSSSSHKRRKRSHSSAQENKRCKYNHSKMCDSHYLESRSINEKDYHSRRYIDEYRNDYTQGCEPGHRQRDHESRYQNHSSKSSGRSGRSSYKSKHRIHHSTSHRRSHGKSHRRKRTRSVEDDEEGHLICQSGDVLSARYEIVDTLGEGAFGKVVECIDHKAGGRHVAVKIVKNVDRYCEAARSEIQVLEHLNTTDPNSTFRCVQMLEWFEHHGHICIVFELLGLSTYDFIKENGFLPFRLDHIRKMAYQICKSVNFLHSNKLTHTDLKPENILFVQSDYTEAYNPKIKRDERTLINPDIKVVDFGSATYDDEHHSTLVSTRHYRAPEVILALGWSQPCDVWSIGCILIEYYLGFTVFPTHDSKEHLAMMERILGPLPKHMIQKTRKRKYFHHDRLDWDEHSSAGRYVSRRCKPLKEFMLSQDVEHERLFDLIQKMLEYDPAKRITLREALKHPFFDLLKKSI

[3] = target: Aurora kinase A (Homo sapiens) (UniProt O14965); conditions: dose 10.0 µM
[4] = target: BMP-2-inducible protein kinase (Homo sapiens) (UniProt Q9NSY1); conditions: dose 10.0 µM
[5] = target: Homeodomain-interacting protein kinase 2 (Homo sapiens) (UniProt Q9H2X6); conditions: dose 10.0 µM
[6] = target: Casein kinase II subunit alpha (Homo sapiens) (UniProt P68400); conditions: dose 10.0 µM
[7] = target: Serine/threonine-protein kinase haspin (Homo sapiens) (UniProt Q8TF76); conditions: dose 10.0 µM
[8] = target: Myotonin-protein kinase (Homo sapiens) (UniProt Q09013); conditions: dose 10.0 µM
[9] = target: T3, Dual specificity protein kinase CLK3 (Homo sapiens, UniProt P49761); conditions: dose 10.0 µM
Target sequence in this assay (P49761 whole entry, looked up): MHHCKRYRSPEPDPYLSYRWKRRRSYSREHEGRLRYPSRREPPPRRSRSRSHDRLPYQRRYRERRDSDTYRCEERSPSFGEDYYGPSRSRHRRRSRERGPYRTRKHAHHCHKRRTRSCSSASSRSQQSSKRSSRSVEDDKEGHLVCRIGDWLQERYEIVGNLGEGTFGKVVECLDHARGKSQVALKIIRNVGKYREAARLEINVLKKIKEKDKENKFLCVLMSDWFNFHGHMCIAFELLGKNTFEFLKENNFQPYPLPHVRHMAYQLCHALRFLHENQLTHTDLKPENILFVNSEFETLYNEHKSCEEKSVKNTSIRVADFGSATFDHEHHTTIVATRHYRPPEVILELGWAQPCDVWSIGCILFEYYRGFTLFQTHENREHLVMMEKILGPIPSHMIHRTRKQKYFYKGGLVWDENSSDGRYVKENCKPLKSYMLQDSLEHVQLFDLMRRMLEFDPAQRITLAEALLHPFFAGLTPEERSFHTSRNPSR

[10] = target: Dual specificity tyrosine-phosphorylation-regulated kinase 2 (Homo sapiens) (UniProt Q92630); conditions: dose 10.0 µM
[11] = target: Casein kinase I isoform delta (Homo sapiens) (UniProt P48730); conditions: dose 10.0 µM
[12] = target: AP2-associated protein kinase 1 (Homo sapiens) (UniProt Q2M2I8); conditions: dose 10.0 µM
[13] = target: Calcium/calmodulin-dependent protein kinase kinase 2 (Homo sapiens) (UniProt Q96RR4); conditions: dose 10.0 µM
[14] = target: T4, Glycogen synthase kinase-3 beta (Homo sapiens, UniProt P49841); conditions: dose 10.0 µM
Target sequence in this assay (P49841 whole entry, looked up): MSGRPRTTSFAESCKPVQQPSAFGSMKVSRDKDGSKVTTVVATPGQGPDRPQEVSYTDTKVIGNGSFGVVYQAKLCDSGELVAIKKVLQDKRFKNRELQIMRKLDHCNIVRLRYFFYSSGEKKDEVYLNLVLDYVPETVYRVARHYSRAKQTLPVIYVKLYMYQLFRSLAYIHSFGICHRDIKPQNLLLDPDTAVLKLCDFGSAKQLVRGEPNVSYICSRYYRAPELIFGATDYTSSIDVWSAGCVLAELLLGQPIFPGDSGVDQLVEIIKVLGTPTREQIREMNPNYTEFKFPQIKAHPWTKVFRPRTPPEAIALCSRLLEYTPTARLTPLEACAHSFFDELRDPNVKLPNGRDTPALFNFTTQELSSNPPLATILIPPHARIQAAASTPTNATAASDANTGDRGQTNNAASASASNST

[15] = target: Serine/threonine-protein kinase pim-3 (Homo sapiens) (UniProt Q86V86); conditions: dose 10.0 µM
[16] = target: T5, Casein kinase I isoform epsilon (Homo sapiens, UniProt P49674); conditions: dose 10.0 µM
Target sequence in this assay (P49674 whole entry, looked up, canonical isoform): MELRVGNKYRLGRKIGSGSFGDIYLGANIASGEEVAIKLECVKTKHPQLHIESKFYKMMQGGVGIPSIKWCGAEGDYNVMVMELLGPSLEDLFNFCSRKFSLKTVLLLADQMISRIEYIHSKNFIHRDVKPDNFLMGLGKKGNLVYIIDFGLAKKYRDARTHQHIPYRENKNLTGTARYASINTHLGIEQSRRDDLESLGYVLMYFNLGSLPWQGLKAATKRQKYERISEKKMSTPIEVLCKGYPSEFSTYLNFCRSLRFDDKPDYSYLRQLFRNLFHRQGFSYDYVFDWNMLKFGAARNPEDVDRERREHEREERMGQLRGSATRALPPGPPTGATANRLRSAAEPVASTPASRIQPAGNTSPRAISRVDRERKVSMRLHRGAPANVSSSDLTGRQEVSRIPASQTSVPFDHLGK

[17] = target: T2, Dual specificity protein kinase CLK1; assay type: cell-based, Sf9
Target sequence in this assay (P49759 whole entry): as the sequence (P49759 whole entry, looked up) above

[18] = target: Dual specificity tyrosine-phosphorylation-regulated kinase 1A (Homo sapiens, UniProt Q13627)
[19] = target: Cyclin-dependent kinase 5/CDK5 activator 1 (Homo sapiens, UniProt Q00535); assay type: cell-based, Sf9
[20] = target: T5, Casein kinase I isoform epsilon
Target sequence in this assay (P49674 whole entry, canonical isoform): as the sequence (P49674 whole entry, looked up, canonical isoform) above

[21] = target: T4, Glycogen synthase kinase-3 beta; assay type: cell-based, Sf9
Target sequence in this assay (P49841 whole entry): as the sequence (P49841 whole entry, looked up) above

[22] = target: T6, Dual specificity tyrosine-phosphorylation-regulated kinase 2 (Homo sapiens, UniProt Q92630)
T6 sequence (Q92630 whole entry): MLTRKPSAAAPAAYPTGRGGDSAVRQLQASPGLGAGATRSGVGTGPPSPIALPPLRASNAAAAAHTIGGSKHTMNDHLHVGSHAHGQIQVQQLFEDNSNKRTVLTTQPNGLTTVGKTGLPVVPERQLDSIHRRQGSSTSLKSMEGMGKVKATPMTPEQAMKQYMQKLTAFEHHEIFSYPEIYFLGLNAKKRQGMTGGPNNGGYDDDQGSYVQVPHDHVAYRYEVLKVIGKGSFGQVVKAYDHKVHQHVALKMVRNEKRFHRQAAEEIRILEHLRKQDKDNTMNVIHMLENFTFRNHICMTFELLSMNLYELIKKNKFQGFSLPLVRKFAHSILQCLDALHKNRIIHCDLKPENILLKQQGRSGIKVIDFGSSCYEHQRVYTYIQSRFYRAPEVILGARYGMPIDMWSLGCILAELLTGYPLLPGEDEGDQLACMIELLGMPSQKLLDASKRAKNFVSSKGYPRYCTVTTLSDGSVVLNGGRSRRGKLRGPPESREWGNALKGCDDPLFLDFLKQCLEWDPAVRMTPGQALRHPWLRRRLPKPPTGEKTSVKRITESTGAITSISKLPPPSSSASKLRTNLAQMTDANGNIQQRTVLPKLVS

[23] = target: T7, Dual specificity tyrosine-phosphorylation-regulated kinase 3 (Homo sapiens, UniProt O43781)
T7 sequence (O43781 whole entry): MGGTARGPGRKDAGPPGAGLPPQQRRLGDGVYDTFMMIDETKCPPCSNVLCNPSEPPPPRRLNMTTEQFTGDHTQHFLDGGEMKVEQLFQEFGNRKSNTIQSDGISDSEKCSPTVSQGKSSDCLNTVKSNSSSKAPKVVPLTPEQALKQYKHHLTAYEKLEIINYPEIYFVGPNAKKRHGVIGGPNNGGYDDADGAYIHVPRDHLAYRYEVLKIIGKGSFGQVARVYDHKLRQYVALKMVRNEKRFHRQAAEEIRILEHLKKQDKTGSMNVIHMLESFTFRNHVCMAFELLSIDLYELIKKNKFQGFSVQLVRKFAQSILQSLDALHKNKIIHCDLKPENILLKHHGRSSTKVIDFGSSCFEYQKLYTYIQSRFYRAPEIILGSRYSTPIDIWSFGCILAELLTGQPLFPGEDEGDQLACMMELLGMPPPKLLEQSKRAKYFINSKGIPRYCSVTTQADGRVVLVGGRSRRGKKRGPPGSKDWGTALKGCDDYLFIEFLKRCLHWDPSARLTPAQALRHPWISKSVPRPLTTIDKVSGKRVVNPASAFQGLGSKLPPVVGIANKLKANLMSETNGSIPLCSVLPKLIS

[24] = target: T3, Dual specificity protein kinase CLK3; assay type: cell-based, Sf9
Target sequence in this assay (P49761 whole entry): as the sequence (P49761 whole entry, looked up) above

[25] = target: Dual specificity protein kinase CLK4 (Homo sapiens, UniProt Q9HAZ1)
[26] = target: Dual specificity protein kinase CLK2 (Homo sapiens, UniProt P49760)
[27] = target: T8, Dual specificity tyrosine-phosphorylation-regulated kinase 4 (Homo sapiens, UniProt Q9NR20)
T8 sequence (Q9NR20 whole entry): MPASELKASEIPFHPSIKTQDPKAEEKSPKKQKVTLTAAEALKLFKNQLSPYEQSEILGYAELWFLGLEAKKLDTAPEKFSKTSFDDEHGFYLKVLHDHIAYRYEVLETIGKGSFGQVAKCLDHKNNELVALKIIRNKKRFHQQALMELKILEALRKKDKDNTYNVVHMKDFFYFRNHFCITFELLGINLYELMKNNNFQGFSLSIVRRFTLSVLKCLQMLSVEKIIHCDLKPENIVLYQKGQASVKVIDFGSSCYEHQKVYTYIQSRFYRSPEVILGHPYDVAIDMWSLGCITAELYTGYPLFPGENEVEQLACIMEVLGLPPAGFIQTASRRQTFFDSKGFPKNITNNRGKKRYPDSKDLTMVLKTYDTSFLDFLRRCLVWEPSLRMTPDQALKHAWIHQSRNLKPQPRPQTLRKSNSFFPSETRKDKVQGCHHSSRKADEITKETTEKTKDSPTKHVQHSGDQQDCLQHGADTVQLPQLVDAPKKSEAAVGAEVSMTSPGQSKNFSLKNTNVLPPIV

Sequence of Cyclin-dependent kinase 5/CDK5 activator 1 (Q00535 whole entry, canonical isoform): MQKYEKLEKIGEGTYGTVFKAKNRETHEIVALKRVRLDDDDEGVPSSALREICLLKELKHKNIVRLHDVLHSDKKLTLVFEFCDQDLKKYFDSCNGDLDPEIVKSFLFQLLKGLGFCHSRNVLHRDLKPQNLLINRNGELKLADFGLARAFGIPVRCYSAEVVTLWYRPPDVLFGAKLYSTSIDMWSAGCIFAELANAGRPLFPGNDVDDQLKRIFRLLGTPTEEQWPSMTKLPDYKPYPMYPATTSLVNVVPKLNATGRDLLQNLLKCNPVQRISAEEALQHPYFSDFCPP
Sequence of Cyclin-dependent kinase 5/CDK5 activator 1 (Q15078 whole entry, further chain, canonical isoform): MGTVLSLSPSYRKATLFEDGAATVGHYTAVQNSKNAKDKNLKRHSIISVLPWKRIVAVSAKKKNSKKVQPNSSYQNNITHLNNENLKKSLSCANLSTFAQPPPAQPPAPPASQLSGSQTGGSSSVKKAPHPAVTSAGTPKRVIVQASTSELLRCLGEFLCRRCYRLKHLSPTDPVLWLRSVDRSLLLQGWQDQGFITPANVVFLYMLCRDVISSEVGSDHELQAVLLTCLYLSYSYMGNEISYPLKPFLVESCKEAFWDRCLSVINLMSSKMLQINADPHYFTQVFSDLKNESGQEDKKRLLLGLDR
Sequence of Dual specificity protein kinase CLK2 (P49760 whole entry): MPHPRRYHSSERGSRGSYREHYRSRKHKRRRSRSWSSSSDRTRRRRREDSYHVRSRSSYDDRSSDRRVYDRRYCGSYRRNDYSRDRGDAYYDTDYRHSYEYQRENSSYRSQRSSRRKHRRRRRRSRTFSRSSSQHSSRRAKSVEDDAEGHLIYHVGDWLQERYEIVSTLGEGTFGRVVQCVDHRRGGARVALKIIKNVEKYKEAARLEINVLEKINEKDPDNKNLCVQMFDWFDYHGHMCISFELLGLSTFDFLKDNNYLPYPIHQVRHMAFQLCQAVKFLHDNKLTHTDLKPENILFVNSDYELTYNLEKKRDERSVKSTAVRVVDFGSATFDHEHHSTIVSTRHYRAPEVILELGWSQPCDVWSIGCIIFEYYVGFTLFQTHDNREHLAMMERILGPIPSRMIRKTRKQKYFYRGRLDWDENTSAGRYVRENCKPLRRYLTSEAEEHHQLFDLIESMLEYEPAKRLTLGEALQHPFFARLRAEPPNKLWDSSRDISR
Sequence of Dual specificity protein kinase CLK4 (Q9HAZ1 whole entry): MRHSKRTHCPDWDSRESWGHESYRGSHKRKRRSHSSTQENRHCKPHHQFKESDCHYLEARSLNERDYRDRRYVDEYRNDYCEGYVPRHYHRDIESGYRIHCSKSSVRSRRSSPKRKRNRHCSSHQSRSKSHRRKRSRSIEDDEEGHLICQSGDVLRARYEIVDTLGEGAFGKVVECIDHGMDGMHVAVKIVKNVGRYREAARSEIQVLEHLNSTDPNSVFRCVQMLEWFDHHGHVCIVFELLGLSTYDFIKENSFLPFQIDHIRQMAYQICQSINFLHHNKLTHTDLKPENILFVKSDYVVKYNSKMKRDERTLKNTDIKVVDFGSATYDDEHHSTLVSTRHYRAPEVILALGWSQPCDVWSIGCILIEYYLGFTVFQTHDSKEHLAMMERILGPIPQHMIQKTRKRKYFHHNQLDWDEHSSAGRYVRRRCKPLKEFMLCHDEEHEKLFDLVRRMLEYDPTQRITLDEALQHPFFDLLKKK
Sequence of Homeodomain-interacting protein kinase 2 (Homo sapiens) (Q9H2X6 whole entry, looked up): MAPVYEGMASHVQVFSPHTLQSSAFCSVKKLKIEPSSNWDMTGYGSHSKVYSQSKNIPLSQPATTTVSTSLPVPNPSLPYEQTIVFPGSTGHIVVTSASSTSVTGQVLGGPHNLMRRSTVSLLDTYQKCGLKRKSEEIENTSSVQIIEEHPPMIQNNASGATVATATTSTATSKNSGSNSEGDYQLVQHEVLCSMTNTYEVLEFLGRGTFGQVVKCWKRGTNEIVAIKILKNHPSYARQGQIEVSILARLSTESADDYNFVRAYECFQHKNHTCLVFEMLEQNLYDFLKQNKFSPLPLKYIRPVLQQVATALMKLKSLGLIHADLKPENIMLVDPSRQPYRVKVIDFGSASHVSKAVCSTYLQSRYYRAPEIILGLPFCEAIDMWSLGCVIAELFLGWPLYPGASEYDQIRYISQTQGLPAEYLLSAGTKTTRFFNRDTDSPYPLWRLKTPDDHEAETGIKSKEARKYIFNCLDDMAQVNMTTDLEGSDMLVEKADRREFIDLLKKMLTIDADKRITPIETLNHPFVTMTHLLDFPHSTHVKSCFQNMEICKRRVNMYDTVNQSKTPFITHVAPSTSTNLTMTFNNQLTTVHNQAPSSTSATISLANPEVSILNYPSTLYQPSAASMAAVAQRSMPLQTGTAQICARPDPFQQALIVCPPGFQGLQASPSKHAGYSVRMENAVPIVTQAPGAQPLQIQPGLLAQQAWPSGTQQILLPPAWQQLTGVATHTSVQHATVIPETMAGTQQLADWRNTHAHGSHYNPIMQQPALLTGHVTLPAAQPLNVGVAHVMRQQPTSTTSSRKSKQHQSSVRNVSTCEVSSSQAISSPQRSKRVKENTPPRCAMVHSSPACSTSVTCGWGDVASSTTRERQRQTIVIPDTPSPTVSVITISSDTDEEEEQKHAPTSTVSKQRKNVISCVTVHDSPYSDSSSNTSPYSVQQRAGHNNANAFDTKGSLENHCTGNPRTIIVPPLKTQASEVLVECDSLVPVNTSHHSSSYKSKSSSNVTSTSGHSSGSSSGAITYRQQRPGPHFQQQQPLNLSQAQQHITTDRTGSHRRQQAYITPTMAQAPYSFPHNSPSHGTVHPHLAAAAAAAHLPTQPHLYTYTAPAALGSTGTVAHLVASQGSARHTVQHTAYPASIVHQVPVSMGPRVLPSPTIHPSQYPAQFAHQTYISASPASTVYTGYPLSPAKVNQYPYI

SMILES | IC50 [17] | IC50 [18] | IC50 [19] | IC50 [20] | IC50 [21] | IC50 [22] | IC50 [23] | IC50 [24] | IC50 [25] | IC50 [26] | IC50 [27] | other results
O=C1NC(NC23CC4CC(CC(C4)C2)C3)=N/C1=C\c1ccc2ncsc2c1 |  |  |  |  |  |  |  |  |  |  |  | ΔTm [1]: 10.3 °C; ΔTm [2]: 19.9 °C; ΔTm [3]: 7.5 °C; ΔTm [4]: 9.8 °C; ΔTm [5]: 5.2 °C; ΔTm [6]: 9.7 °C; ΔTm [7]: 7.6 °C; ΔTm [8]: 5.6 °C; ΔTm [9]: 9.7 °C; ΔTm [10]: 12.4 °C; ΔTm [11]: 5 °C; ΔTm [12]: 6.1 °C; ΔTm [13]: 10.2 °C; ΔTm [14]: 6.5 °C; ΔTm [15]: 5.5 °C; ΔTm [16]: 5.5 °C
Cn1cnc2cc(/C=C3\N=C(NC45CC6CC(CC(C6)C4)C5)NC3=O)ccc21 | > 10 µM | > 10 µM | > 10 µM | > 10 µM | > 10 µM | > 10 µM | > 10 µM | > 10 µM | > 10 µM | > 10 µM | > 10 µM | 
O=C1NC(NC2CCCCCC2)=N/C1=C\c1ccc2c(c1)OCO2 | 0.042 µM | 0.047 µM | > 10 µM | > 10 µM | > 10 µM | 5.08 µM | 3.19 µM | 4.44 µM | 0.02 µM | 0.826 µM | 1.23 µM | 
Cn1ccc2cc(/C=C3\N=C(NC45CC6CC(CC(C6)C4)C5)NC3=O)ccc21 | > 10 µM | > 10 µM | > 10 µM | > 10 µM | > 10 µM | > 10 µM | > 10 µM | > 10 µM | > 10 µM | > 10 µM | > 10 µM | 
Cn1ccc2cc(/C=C3\N=C(NC4CCCCCC4)NC3=O)ccc21 | > 10 µM | > 10 µM | > 10 µM | > 10 µM | > 10 µM | > 10 µM | > 10 µM | > 10 µM | > 10 µM | > 10 µM | > 10 µM | 
CN1CCN(C(=O)C(C)(C)c2ccc(C(=O)Nc3cn4cc(-c5ccncc5)ccc4n3)cc2)CC1 |  |  |  |  |  |  |  |  |  |  |  | ΔTm [2]: 15.7 °C; ΔTm [9]: 15 °C
Cn1cnc2ccc(/C=C3\N=C(NC45CC6CC(CC(C6)C4)C5)NC3=O)cc21 | 0.009 µM | 0.007 µM | 0.65 µM | > 10 µM | 1.54 µM | 0.095 µM | 0.068 µM | 1.06 µM | 0.003 µM | 0.003 µM | 0.08 µM | 
COC(=O)[C@H](C)NC1=N/C(=C\c2ccc3ncsc3c2)C(=O)N1 | 0.02 µM | 0.007 µM | > 10 µM | > 10 µM | 5.14 µM | 0.413 µM | 1.23 µM | 0.284 µM | 0.007 µM | 0.086 µM | 2.29 µM | 
O=C1NC(NC2CCCCCC2)=N/C1=C\c1ccc2ncoc2c1 | 0.018 µM | 0.013 µM | > 10 µM | > 10 µM | 3.02 µM | 0.566 µM | 1.14 µM | 0.285 µM | 0.011 µM | 0.174 µM | 0.617 µM | 
CN[C@@H]1C[C@H]2O[C@@](C)([C@@H]1OC)n1c3ccccc3c3c4c(c5c6ccccc6n2c5c31)C(=O)NC4 |  |  |  |  |  |  |  |  |  |  |  | ΔTm [1]: 14 °C; ΔTm [5]: 4.5 °C; ΔTm [15]: 11.9 °C
Nc1nccc(-c2c(-c3ccc(F)cc3)ncn2C2CCCCC2)n1 |  |  |  |  |  |  |  |  |  |  |  | ΔTm [11]: 9 °C; ΔTm [16]: 8 °C
O=C1NC(NC2CCCCC2)=N/C1=C\c1ccc2[nH]ccc2c1 | > 10 µM | > 10 µM | > 10 µM | > 10 µM | > 10 µM | > 10 µM | > 10 µM | > 10 µM | > 10 µM | > 10 µM | > 10 µM | 
O=C1NC(NC23CC4CC(CC(C4)C2)C3)=N/C1=C\c1ccc2[nH]ccc2c1 | 8.83 µM | 0.957 µM | > 10 µM | > 10 µM | > 10 µM | > 10 µM | > 10 µM | > 10 µM | 2.55 µM | 3.61 µM | > 10 µM | 
